This is an account of results in article PMC3056768, “Conjugation to the Cell-Penetrating Peptide TAT Potentiates the Photodynamic Effect of Carboxytetramethylrhodamine” (PLoS ONE, 2011).

“Also recorded” adds a separate entry of the source.

Data set [1] has as its system HeLa cells. Kind of data set: Photocytotoxicity of endocytosed peptide after light irradiation (SYTOX Blue staining, membrane blebbing). To be noted: for photocytotoxicity / cell death after irradiation at 560 nm: incubation 1 h 37°C (3 µM; TMR-K9 10 µM), irradiated at 560±20 nm. The format is cell-based. How it is done: (§1) HeLa (human cervical adenocarcinoma), COS-7 (SV40 transformed African green monkey kidney fibroblast-like cell line) were obtained from ATCC. COLO 316 (human ovarian carcinoma) were obtained from Robert Burghardt (Department of Veterinary Integrative Biosciences, Texas A&M University). Cells were cultured in DMEM supplemented with 10% fetal bovine serum (FBS) and maintained at 37°C in a humidified environment with 5% CO2. Cells were plated in 8-well dishes so that the cells were 70% confluent after 24 h, washed 3 times with L-15 media, incubated with 3 to 10 µM peptides at 37°C for 1 h, washed 3 times with L-15, and imaged. Alternatively, cells were incubated in L-15 at 4°C to inhibit the endocytic uptake of peptides. In this case, cells were imaged with the peptide still present in solution and the low temperature was maintained for the entire duration of imaging. For photosensitization, cells were exposed to light (λex = 560±20 nm) for the indicated time points. Plasma membrane disruption was detected by addition of the cell-impermeable DNA stain SYTOX Blue (5 µM) during or after photosensitization.
(§2) Ten to twenty images were acquired for each experiment.
Irradiances at the specimen were 100 mW/cm^2 when no neutral density filter and no objective were present in the light path (and, for instance 5 mW/cm^2 when ND4 was inserted). Irradiances were measured using a monochromic photometer (model 840-c, Newport, Irvine, CA). Irradiation area has a diameter of 1.3 cm without objective but the light beam is focused into an area of 3×10^−3 cm^2 by the 100× objective. Irradiances can therefore be approximated to be at […] with ND4 or ND1, respectively. Irradiances provided in the figure legends are based on these calculations. To confirm that the irradiances measured on the microscope were accurate, experiments were also reproduced, when possible, using light illumination with a collimated light source from Oriel (Stratford, CT) equipped with a 500 W Hg lamp. Selective irradiation at 560 nm was performed using an analytical line filter (Oriel, 9.4 nm bandwidth). In this case, irradiances of the light beam (diameter of 2.5 cm) could be measured more precisely using the monochromic photometer.

The test system of data set [2] is HeLa cells. Kind of data set: Photo-induced endosomal release (fluorescence imaging). The format is cell-based, human. To be noted: washed. The method, then: as §1, §2
The effect of light irradiation on cells that have endocytosed TMR-TAT was first investigated. HeLa cells were incubated in the presence of TMR-TAT (3 µM) for 1 hour at 37°C. After washing the cells, the sample was placed on a microscope and the cellular distribution of the peptide was assessed by fluorescence imaging. […] Within seconds, the content of many endosomes was released into the cell and the peptides were distributed throughout the cell. The peptide also accumulated at the nucleoli, a known effect of TAT [7]. […] The viability of non-irradiated cells was, in contrast, not affected by TMR-TAT (Fig. 2B); we found the cytotoxicity of the peptide to be negligible in the absence of light at concentrations up to 25 µM (supporting information Fig. S1).

For data set [3], the system named is HeLa cells. Kind of data set: Photosensitization of extracellular peptide at 4°C (endocytosis blocked). To be noted: 3 µM, 4°C to block endocytosis, irradiated at 560 nm with compound still in the media. The format is cell-based, human. The method, then: as §1
It is therefore possible that the endosomal release observed in the experiments of Figure 1 might be necessary to cause cell death. To investigate whether this is the case, we examined if light-induced cell-death could be observed when the peptides were only localized at the plasma membrane of cells. For these experiments, HeLa cells were first incubated with the peptides (3 µM) at 4°C to block endocytosis. Cells were then irradiated with the peptides still present in the media (the peptide is not retained at the plasma membrane when cells are washed). […] Cells were then washed and observed by fluorescence imaging. […] On the other hand, the membrane damage and cell death obtained after TMR-TAT photosensitization were also observed when hematoporphyrin (HP) or hematoporphyrin derivative (HPD) were used (Fig. 4B). […]

In data set [4] the test system is red blood cells (RBCs). To be noted: for effect of hydrophilic 1O2 scavenger on photohemolysis by TMR-TAT or TMR-riTAT: scavenger up to 50 mM, TMR-TAT or TMR-riTAT 3 µM. The method, then:
Whole blood was purchased from Gulf Coast Regional Blood Center (Houston, TX). Erythrocytes were centrifuged for 5 min at 1500 g and the erythrocyte pellet was resuspended with PBS. This was repeated three times to remove plasma and buffy coat. The erythrocytes (50% volume in PBS) were diluted in PBS to a final concentration of 0.25%. Indicated concentration of peptide was added to the medium and the samples were added to the wells of an 8-well chamber glass slide (Nunc). Cells were typically allowed to settle to the bottom of the dish for 5 minutes prior to imaging so as to obtain a layer of cells in the focal plane.
Cells were placed on an inverted epifluorescence microscope (Model IX81, Olympus, Center Valley, PA) equipped with a heating stage maintained at 37°C. The microscope is configured with a spinning disk unit to perform both confocal and wide-field fluorescence microscopy. Images were collected using a Rolera-MGI Plus back-illuminated EMCCD camera (Qimaging, Surrey, BC, Canada). Images were acquired using bright field imaging and two standard fluorescence filter sets: Texas Red (Ex = 560±20 nm/Em = 630±35 nm), and CFP (Ex = 436±10 nm/Em = 480±20 nm). The excitation light was from a 100 W halogen lamp (Olympus USH 1030C) passed through the filter cubes and 40 or 100× objective lenses. Neutral density filters (ND 1, 2, 3, or 4 on the instrument, corresponding to 100, 25, 12.5, or 5% transmittance) and different exposure times were used to modulate the amount of light samples were exposed to. The bright field and fluorescence intensities of cells and ghosts were measured using the SlideBook 4.2 software (Olympus, Center Valley, PA). To determine the percentage of cells stained by SYTOX® Blue, cells were imaged with a 20× objective by phase contrast. Ten to twenty images were acquired for each experiment. The total number of cells in a given image was determined from the phase contrast image while the number of dead cells was determined by identifying cells containing a blue fluorescent nucleus stained by SYTOX® Blue. Cell viability was determined by establishing a ratio of dead cells/total number of cells for each sample (at least 1000 cells were counted in each experiments and each experiments were repeated 3 times).
TMR and TMR containing peptides were used at 2 µM. All experiments were performed by irradiating the samples at 560 nm for 400 msec (∼8 J/cm^2). The data in the histogram represents the average of 4 experiments and the error bars correspond to the standard deviation.

Data set [5] deals with HeLa cells. Kind of data set: Endocytic uptake (fluorescence of endocytic organelles). The class given is cell-based, human. How it is done:
as §1
Supplementary file pone.0017732.s003.tif: Figure S3 Comparison of the fluorescence intensity of endosomes containing TMR-TAT (incubation at 3 µM) or TMR-K9 (incubation at 10 µM) in the images presented in Figure 1. Imaging was performed in both cases under identical conditions. The fluorescence intensities of all endocytic organelles was measured the Slidebook software. […] (TIF) Click here for additional data file.

For data set [6] the following is noted: cited from earlier work. The text has this:
Upon light irradiation TMR-TAT rapidly and efficiently disrupts the membrane of endosomes. However, in our hands, this activity is also accompanied by the simultaneous destruction of cells. The peptide therefore played the role of a photosensitizer, a molecule able to kill cells upon light irradiation. While multiple cellular events might take place during the photosensitization of the compound, the damage to cellular membranes other than that of endosomes appears to lead to this photocytotoxic effect. The peptide was for instance able to lyse the plasma membrane of HeLa cells as well as the m ...

For the compound “TMR-KKKKKKKKK-NH2 [TMR-K9, 9 positively charged lysine residues labeled with TMR; serves as a control]”, in data set [1] (washed), the “photocytotoxicity / cell death after irradiation at 560 nm” value (“photocytotoxicity / cell death” for short) is recorded as “remain viable; also recorded: no photocytoxicity; also recorded: essentially non-cytotoxic”. The “photo-induced endosomal release (photoendosomolytic activity) at 560 nm” value in data set [2] (incubation 1 h 37°C (3 µM; TMR-K9 10 µM), irradiated at 560±20 nm) is “not affected”. Besides, the “light-induced cell death with peptide only extracellular” value in data set [3] is reported as “did not die”. Moreover, in data set [4] (RBCs 0.25% in PBS, 2 µM, 560 nm for 400 msec (~8 J/cm^2), average of 4 experiments), the “fold less efficient than TMR-TAT and TMR-riTAT in causing photohemolysis” value turned out to be 5 fold. In addition, in data set [5] (1 h at 37°C, washed, fluorescence imaging (TMR-TAT 3 µM; TMR-K9 higher concentration)), the “endocytic uptake by cells” value is given as “endocytosed by cells”. The “amount present in endocytic organelles (fluorescence intensity) compared with TMR-TAT” value in data set [5] (TMR-K9 incubation at 10 µM vs TMR-TAT at 3 µM, identical imaging) is “equal or greater that that of TMR-TAT”.
`CC1=C(CCC(=O)O)c2cc3[nH]c(cc4nc(cc5[nH]c(cc1n2)c(C)c5C(C)O)C(C)=C4C(C)O)c(C)c3CCC(=O)O` (stereo not shown) [HP, hematoporphyrin]: in data set [1] (incubated 1 hour, washed with L-15, irradiated at 560 nm), the “membrane damage and cell death after photosensitization” value is “also observed”. Besides, the “singlet oxygen quantum yield” value in data set [6] is given as “approximately 0.5”.
Consider `CC(/C=C/C=C(\C)C(=O)O)=C\C=C\C=C(C)\C=C\C=C(/C)C(=O)O` [crocetin, reference compound], for which the “cell death by irradiated TMR-TAT in the presence of quencher” value in data set [1] (TMR-TAT 3 µM with crocetin 50 µM for 1 hour, washed, 560 nm) is “cell-death was not observed; also recorded: not accompanied by membrane blebbing or SYTOX® Blue staining”. Also, in data set [2] (TMR-TAT 3 µM with crocetin 50 µM for 1 hour, 560 nm), the “endosomal release of TMR-TAT in the presence of quencher” value is reported as “lesser extent; also recorded: reduced by crocetin but not abolished”. Moreover, in data set [4] (crocetin 50 µM), the “effect of quencher on photohemolysis” value is on record as “dramatic reduction”.
For the compound `CC(=O)Oc1c(C)c(C)c2c(c1C)CCC(C)(CCC[C@H](C)CCC[C@H](C)CCCC(C)C)O2` (stereo partly drawn) [α-tocopherol acetate], the “onset of photosensitization of TMR-TAT in the presence of quencher” value in data set [1] (α-tocopherol acetate prior to TMR-TAT incubation and during irradiation) is listed as “delayed”. The “photo-induced endosomal release and cell death by TMR-TAT in the presence of quencher” value in data set [1] (α-tocopherol acetate prior to TMR-TAT incubation and during irradiation, data not shown) is on record as “still observed”.
Take `N[C@@H](Cc1c[nH]cn1)C(=O)O` [L-histidine, reference compound]: the “effect of hydrophilic 1O2 scavenger on photohemolysis by TMR-TAT or TMR-riTAT” value in data set [4] is on record as “no detectable decrease”.
Regarding “GRKKRRQRRR [TAT, prototypical cell-penetrating peptide TAT, unlabeled]”, the “photocytotoxicity / cell death” value in data set [1] (washed) is recorded as “did not die”.
Regarding `[N-]=[N+]=[N-].[Na+]` [sodium azide, reference compound], the “effect of hydrophilic 1O2 scavenger on photohemolysis by TMR-TAT or TMR-riTAT” value in data set [4] is reported as “no detectable decrease”.
Regarding “5(6)-carboxytetramethylrhodamine [TMR, reference compound]”, the “photocytotoxicity / cell death” value in data set [1] (washed) is listed as “did not cause cell death; also recorded: essentially non-cytotoxic”. Further, the “light-induced cell death with peptide only extracellular” value in data set [3] is given as “did not die”. For the same compound, in data set [4] (RBCs 0.25% in PBS, irradiation at 560 nm), the “photohemolysis (lytic effect on RBCs upon light exposure)” value is reported as “no lytic effect”.
